Where a name gives a salt, the structure may show the parent alone.
Assays:
CML = details: standard of therapy for CML; cited from earlier work
[1] = tested on: primary CD34+ CP CML cells; assay: Colony forming assay and serial re-plating of primary CML cells; format: cell-based, human; details: for proliferation index (PI) of re-plated colonies (AUC): 3d nilotinib and/or compound A exposure, 132 colonies per arm, compared to untreated cells, FIG. 7
Method: Primary cells were obtained from newly diagnosed and untreated patients with CML in chronic phase. These cells were enriched for CD34+using magnetic-activated cell sorting prior to cryopreservation in 10% DMSO and 4% human albumin solution in liquid nitrogen. Samples were thawed and washed in a solution of DNAse, human albumin solution, magnesium chloride, and phosphate buffered saline. Upon thaw primary cells were cultured in a serum free medium comprising of Iscove's Modified Dulbecco Medium with bovine serum albumin, insulin, transferring, P2 mercaptoethanol and growth factors (100 ng/mL Flt3-ligand, 100 ng/mL stem cell factor, 20 ng/mL interleukin (IL)-3, IL-6 and 50 ng/mL granulocyte-colony stimulating factor) for 24 hours.
Viable cells were enumerated using trypan blue dye exclusion and set up in culture in serum free medium (SFM) with the stated concentrations of Compound A and/or nilotinib. Following 72 hours (h) culture the cells were washed twice in phosphate buffered solution (PBS) and viable cells counted, again by trypan blue exclusion. These cells were then used for a series of colony forming and re-plating assays.
In the colony forming assay (CFA) a single cell suspension is created in semisolid media with appropriate cytokines. This enables the assessment of colony formation from each individual cell. In order to measure the effect of compound A and/or nilotinib on the relative abundance of CD34+ CP CML progenitor cells, CFA were set up in METHOCULT with cells plated at an initial concentration of 4000 cells per mL in duplicate. Colonies were identified and enumerated 14-16 days (d) following plating.
An accepted in vitro technique to approximate self-renewal activity is serial re-plating. Colonies derived from a CFA are individually plucked and re-dispersed in further METHOCULT. The capacity to reform colonies following re-dispersion is related to the number of primitive progenitors remaining within each individual colony and is therefore an indirect measurement of self-renewal. Following CFA 20-30 individual non-erythroid colonies from each experimental arm were then plucked with a p10 pipettor (one tip per colony using an inverted microscope) and carefully dispersed into 100 μL METHOCULT with a further 10 μL SFM in 96 well plates prior to incubation for a further 7d. Resultant secondary colonies were enumerated in each well and; in the case of wells containing secondary colonies; the entire contents were re-dispersed in a further 100 μL METHOCULT to assess tertiary colony formation.
Colony assays were performed in METHOCULT with cells plated at an initial concentration of 4000 cells per mL in duplicate. Colonies were identified and enumerated 14-16 days (d) following plating. […]

[2] = tested on: bone marrow transplant model of Bcr-Abl to induce CML in mice; assay: Bone marrow transplant model of Bcr-Abl induced CML, survival; format: in vivo, mouse; details: groups of 8 mice; two week treatment; compound A 80 mg/kg po qd, AMN107 75 mg/kg po qd or combination; FIG. 10
Method: A bone marrow transplant model of Bcr-Abl was used to induce CML in mice. Briefly, a bicistronic retroviral Bcr-Abl vector (Bcr-Abl-IRES-GFP) was used to produce virus to infect progenitor bone marrow (BM) cells collected from mice previously treated with 5-FU. After 3 rounds of infection, 200,000 GFP positive progenitor BM cells were transplanted into lethally irradiated hosts. Two weeks post-BMT, peripheral blood samples were analyzed by FACS analysis to establish the percentage of GFP positive cells present in the recipient mice. […] During the entire study period the mice were followed for any sign of leukemia development, such as hunched position, lost of body weight or inability of grooming. The animals were sacrificed when they reached any of the previously described signs.

[3] = tested on: mouse bone marrow cells infected with Bcr-abl retrovirus; assay: Methylcellulose colony formation and re-plating of Bcr-Abl infected bone marrow cells; format: cell-based; details: 72 h pre-treatment; for colony formation in the first methylcellulose plating: compared to control DMSO group, FIG. 8
From the text: Colony formation was scored 10 days after plating.
FIG. 9. Colonies obtained in the 1st plating experiment of FIG. 8 were resuspended and washed in PBS containing 10% FCS. Cells were resuspended in OPTI-MEM media and plated in methylcellulose at a concentration of 5000 cells per 35 mm plate. Colony formation was scored 10 days after plating.
Mouse bone marrow cells were infected with a bicistronic retroviral Bcr-Abl vector (Bcr-Abl-IRES-GFP). […] Clonogenic colony formation assays assess the self-renewal capacity of early progenitor/stem cells.

| SMILES | response rates (CML) | re-plating capacity (total secondary and tertiary colonies as percentage of untreated control) ([1]; 72 h culture with drug, first and second re-plate, FIG. 1 and 2) | proliferation index (PI) of re-plated colonies (AUC) ([1]; 4 experiments) | number of animals sacrificed to date [2] | colony number upon secondary re-plating of the colonies ([3]; FIG. 9) | colony formation in the first methylcellulose plating [3] | re-plating capacity (total number of secondary colonies) ([1]; 3d exposure, Compound A 10 nM and/or nilotinib 5 μM, 4 experiments, FIG. 6) |
| --- | --- | --- | --- | --- | --- | --- | --- |
| Cc1ccc(NC(=O)c2ccc(CN3CCN(C)CC3)cc2)cc1Nc1nccc(-c2cccnc2)n1 [Imatinib mesylate] | more than 96% | – | – | – | – | – | – |
| Cc1c(C(=O)Nc2ccc(N3C[C@@H](C)O[C@@H](C)C3)nc2)cccc1-c1ccc(OC(F)(F)F)cc1 [Compound A, 2-Methyl-4′-trifluoromethoxy-biphenyl-3-carboxylic acid [6-(cis-2,6-dimethyl-morpholin-4-yl)-pyridin-3-yl]-amide] | – | reduction in re-plating capacity | reduction in PI | all | pronounced reduction in colony number | No reduction of colony formation | – |
| Cc1cn(-c2cc(NC(=O)c3ccc(C)c(Nc4nccc(-c5cccnc5)n4)c3)cc(C(F)(F)F)c2)cn1 [nilotinib] | – | – | relative increase in PI | 5 | – | No reduction of colony formation | non-significant increase in re-plating capacity |
